Experimental findings from patent publication US10392422B2, “Macrocyclic broad spectrum antibiotics” (priority 2014, dated 2019) are described below.

In brackets after ≈: the same amount, converted by molar mass. Like-named read-outs stand apart in the source and are kept apart here.

What all share (experiment): MIC, broth micro-dilution technique (CLSI)
For orientation: Dilution methods test growth across graded concentrations, often in twofold steps.

Test [1] concerns MRSA COL (NRS100). Format: cell-based, Staphylococcus aureus. Particulars: for MIC: Staphylococcus aureus, 22 h, read-out: MIC (μg/mL) (COL). On the procedure:
(§1) In vitro antimicrobial activity of each compound was determined by measuring minimal inhibitor concentrations (MICs) using the broth micro-dilution technique as approved by the Clinical and Laboratory Standards Institute (CLSI) (Methods for Dilution Antimicrobial Susceptibility Tests for Bacteria that Grow Aerobically; Approved Standard—Eighth Edition. CLSI document M07-A8. Wayne, Pa.: Clinical and Laboratory Standards; 2009). Antibacterial activity was measured against three strains of bacteria: a Methicillin Resistant Staphylococcus aureus strain USA 300 (NRS384); a MRSA COL (NRS100), another Methicillin Resistant Staphylococcus aureus strain; and a strain of Escherichia coli MC4100 harboring the IMP4213, which results in increased outer-membrane permeability (B Martin and Silhavy T. Imp/OstA is required for cell envelope biogenesis in Escherichia coli. (2002) Molecular Microbiology, 45(5), 1289-1302). Cells were inoculated onto plates of Trypyticase Soy Agar or Luria Agar respectively and grown at 35° C. for 20 hours. Inocula suspensions were prepared by scraping cells into 1 ml of testing media (cation adjusted Mueller Hinton Broth supplemented with 0.002% v/v Tween-80) and diluting to a final OD600 nm of 0.01.
(§2) Test compounds were prepared in DMSO at a concentration of 10 mg/ml. These compound stocks were diluted into testing media at a concentration of 64 μg/ml and serial 2-fold dilutions were made in the same media, in 96-well U bottom microtiter dishes, for a total of 10 compound concentrations (Table 1). In modified protocols (Table 2), compound stocks were diluted into testing media at a concentration of 4 μg/mL and serial 2-fold dilutions were made in the same media, in 96-well U bottom microtiter dishes, for a total of 10 compound concentrations. Inocula suspensions were added to the 2-fold serial dilutions of test compounds to a final density of OD OD600 nm of 0.0005 and incubated at 35° C. for 22 hours. […] The results from the protocol starting from a concentration of 64 µg/mL are listed in Table 1 and the results from the modified protocol are shown in Table 2.

For test [2], the system named is Methicillin Resistant Staphylococcus aureus strain USA 300 (NRS384). Format: cell-based. Particulars: for MIC: Staphylococcus aureus, 22 h, read-out: MIC (μg/mL) S. aureus. On the procedure:
as §1, §2

The subject of test [3] is Escherichia coli MC4100 harboring the IMP4213. Format: cell-based. Particulars: 35° C., 22 hours; for MIC: Escherichia coli, 22 h, read-out: MIC (μg/mL) E. coli, Table 1 protocol: serial 2-fold dilutions starting from 64 μg/ml. As for the experimental part: as §1, §2
Where [4] appears, read: Table 1 protocol: serial 2-fold dilutions starting from 64 μg/ml, 35° C., 22 hours.

`C[C@@H]1NC(=O)[C@@H](N(C)C(=O)[C@H](CCCCN)NC(=O)c2ccc(-c3ccc(Cl)cc3)cc2)c2ccc(O)c(c2)-c2cc(ccc2O)C[C@@H](C(=O)N[C@@H](C)C(=O)C2CO2)NC1=O` (some centres unmarked) [Compound 104]: the MIC in test [1] (setting [4]) is 2 µg/mL (≈ 2.34 µM); in test [2] (setting [4]), 2.8 µg/mL (≈ 3.28 µM); in test [3], 2 µg/mL (≈ 2.34 µM).

For the compound `CC(=O)[C@H](C)NC(=O)[C@@H]1Cc2ccc(O)c(c2)-c2cc(ccc2O)[C@H](N(C)C(=O)[C@H](CCCCN)NC(=O)c2ccc(-c3ccc(Cl)cc3)cc2)C(=O)N[C@@H](C)C(=O)N1` [Compound 109], the MIC in test [1] came to 1 µg/mL (≈ 1.21 µM); in test [2], 4 µg/mL (≈ 4.85 µM); in test [3], 64 µg/mL (≈ 77.5 µM).

`CCCCCCCCCCNCCC(=O)N[C@@H](CCCCN)C(=O)N(C)[C@@H]1C(=O)N[C@@H](C)C(=O)N[C@H](C(=O)O)Cc2ccc(O)c(c2)-c2cc1ccc2O` [Compound 110]: the figures for the MIC in test [1], in test [2] and in test [3] were 8 µg/mL (≈ 10.6 µM), 29 µg/mL (≈ 38.5 µM) and 64 µg/mL (≈ 85 µM), respectively.

Turning to `CCCCCCCCCNCCCC(=O)N[C@@H](CCCCN)C(=O)N(C)[C@@H]1C(=O)N[C@@H](C)C(=O)N[C@H](C(=O)N[C@@H](C)C(C)=O)Cc2ccc(O)c(c2)-c2cc1ccc2O` [Compound 111], the MIC was 4 µg/mL (≈ 4.87 µM) in test [1] (setting [4]), 23 µg/mL (≈ 28 µM) in test [2] (setting [4]) and more than 64 µg/mL in test [3].

On to `CCCCCCCCCCNCC(=O)N[C@@H](CCCCN)C(=O)N(C)[C@@H]1C(=O)N[C@@H](C)C(=O)N[C@H](C(=O)N[C@@H](C)C(C)=O)Cc2ccc(O)c(c2)-c2cc1ccc2O` [Compound 112], for which, in test [1] (setting [4]), the “MIC (μg/mL) (COL)” value is 0.5 µg/mL (≈ 0.619 µM). In test [2] (setting [4]), the “MIC (μg/mL) S. aureus” value was 2.8 µg/mL (≈ 3.47 µM). Also, the “MIC (μg/mL) E. coli” value in test [3] (Table 1 protocol: serial 2-fold dilutions starting from 64 μg/ml) came to 64 µg/mL (≈ 79.2 µM).

For the compound `CCCCCCCCCCNCCC(=O)N[C@@H](CCCCN)C(=O)N(C)[C@@H]1C(=O)N[C@@H](C)C(=O)N[C@H](C(=O)O)Cc2ccc(O)c(c2)-c2cc1ccc2OCCN` [Compound 113], the MIC was 2 µg/mL (≈ 2.51 µM) in test [1], 9.5 µg/mL (≈ 11.9 µM) in test [2] and 25 µg/mL (≈ 31.4 µM) in test [3].

As to `CCCCCCCCCCNCCC(=O)N[C@@H](CCCCN)C(=O)N(C)[C@@H]1C(=O)N[C@@H](C)C(=O)N[C@H](C(=O)N[C@@H](C)C(C)=O)Cc2ccc(O)c(c2)-c2cc1ccc2O` [Compound 114], the MIC was 1 µg/mL (≈ 1.22 µM) in test [1], more than 64 µg/mL in test [2] and 32 µg/mL (≈ 38.9 µM) in test [3].

On to `CCCCCCCCCCNCCC(=O)N[C@@H](CCCCN)C(=O)N(C)[C@@H]1C(=O)N[C@@H](C)C(=O)N[C@H](C(=O)N[C@@H](C)C(=O)COC(C)=O)Cc2ccc(O)c(c2)-c2cc1ccc2OCCN` [Compound 116], for which the MIC in test [1] was determined as 0.063 µg/mL (≈ 0.0682 µM); in test [2], 0.35 µg/mL (≈ 0.379 µM); in test [3], 13 µg/mL (≈ 14.1 µM).

With `CC(=O)OCC(=O)[C@H](C)NC(=O)[C@@H]1Cc2ccc(O)c(c2)-c2cc(ccc2OCCN)[C@H](N(C)C(=O)[C@H](CCCCN)NC(=O)c2ccc(-c3ccc(Cl)cc3)cc2)C(=O)N[C@@H](C)C(=O)N1` [Compound 117], the MIC came out at 0.22 µg/mL (≈ 0.237 µM) in test [1], 0.71 µg/mL (≈ 0.766 µM) in test [2] and 1.6 µg/mL (≈ 1.73 µM) in test [3].

In the case of `C[C@H](NC(=O)[C@@H]1Cc2ccc(O)c(c2)-c2cc(ccc2OCCN)[C@H](N(C)C(=O)[C@H](CCCCN)NC(=O)c2ccc(-c3ccc(Cl)cc3)cc2)C(=O)N[C@@H](C)C(=O)N1)C(=O)CO` [Compound 118], the MIC in test [1] was 0.63 µg/mL (≈ 0.712 µM); in test [2] it was 1 µg/mL (≈ 1.13 µM); in test [3], 2 µg/mL (≈ 2.26 µM).

`CC(=O)[C@H](C)NC(=O)[C@@H]1Cc2ccc(O)c(c2)-c2cc(ccc2OCCN)[C@H](N(C)C(=O)[C@H](CCCCN)NC(=O)c2ccc(-c3ccc(Cl)cc3)cc2)C(=O)N[C@@H](C)C(=O)N1` [Compound 119]: the MIC in test [1] is 0.5 µg/mL (≈ 0.576 µM); in test [2], 1 µg/mL (≈ 1.15 µM); in test [3] it was 5.3 µg/mL (≈ 6.1 µM).

As to `CC(=O)[C@H](C)NC(=O)[C@@H]1Cc2ccc(O)c(c2)-c2cc(ccc2OCC(=O)O)[C@H](N(C)C(=O)[C@H](CCCCN)NC(=O)c2ccc(-c3ccc(Cl)cc3)cc2)C(=O)N[C@@H](C)C(=O)N1` [Compound 120], the values for the MIC in test [1], in test [2] and in test [3] were 13 µg/mL (≈ 14.7 µM), 51 µg/mL (≈ 57.7 µM) and 64 µg/mL (≈ 72.4 µM), respectively.

With `CC(=O)[C@H](C)NC(=O)[C@@H]1Cc2ccc(O)c(c2)-c2cc(ccc2OCCO)[C@H](N(C)C(=O)[C@H](CCCCN)NC(=O)c2ccc(-c3ccc(Cl)cc3)cc2)C(=O)N[C@@H](C)C(=O)N1` [Compound 121], the figures for the MIC in test [1], in test [2] and in test [3] were 3 µg/mL (≈ 3.45 µM), 8 µg/mL (≈ 9.2 µM) and 32 µg/mL (≈ 36.8 µM), respectively.

On to `C[C@H](NC(=O)[C@@H]1Cc2ccc(O)c(c2)-c2cc(ccc2O)[C@H](N(C)C(=O)[C@H](CCCCN)NC(=O)c2ccc(-c3ccc(Cl)cc3)cc2)C(=O)N[C@@H](C)C(=O)N1)C(=O)CO` [Compound 124], for which the values for the MIC in test [1], in test [2] and in test [3] were 0.5 µg/mL (≈ 0.594 µM), 1 µg/mL (≈ 1.19 µM) and 16 µg/mL (≈ 19 µM), respectively.

`C[C@H](NC(=O)[C@@H]1Cc2ccc(O)c(c2)-c2cc(ccc2O)[C@H](N(C)C(=O)[C@H](CCCCN)NC(=O)c2ccc(-c3ccc(Cl)cc3)cc2)C(=O)N[C@@H](C)C(=O)N1)C(=O)/C=C/c1cc[nH]n1` [Compound 129]: the MIC in test [1] (setting [4]) was 4 µg/mL (≈ 4.43 µM); in test [2] (setting [4]), 16 µg/mL (≈ 17.7 µM); in test [3], more than 64 µg/mL.

Consider `C[C@H](NC(=O)[C@@H]1Cc2ccc(O)c(c2)-c2cc(ccc2O)[C@H](N(C)C(=O)[C@H](CCCCN)NC(=O)c2ccc(-c3ccc(Cl)cc3)cc2)C(=O)N[C@@H](C)C(=O)N1)C(=O)CCc1cc[nH]n1` [Compound 130], for which the MIC in test [1] (setting [4]) is 8 µg/mL (≈ 8.84 µM); in test [2] (setting [4]), 16 µg/mL (≈ 17.7 µM); in test [3], more than 64 µg/mL.

As to `C[C@H](NC(=O)[C@@H]1Cc2ccc(O)c(c2)-c2cc(ccc2O)[C@H](N(C)C(=O)[C@H](CCCCN)NC(=O)c2ccc(-c3ccc(Cl)cc3)cc2)C(=O)N[C@@H](C)C(=O)N1)C(=O)CCc1c[nH]cn1` [Compound 132], the results for the MIC in test [1] (setting [4]), in test [2] (setting [4]) and in test [3] were 8 µg/mL (≈ 8.84 µM), 32 µg/mL (≈ 35.3 µM) and more than 64 µg/mL, respectively.

With `C[C@H](NC(=O)[C@@H]1Cc2ccc(O)c(c2)-c2cc(ccc2O)[C@H](N(C)C(=O)[C@H](CCCCN)NC(=O)c2ccc(-c3ccc(Cl)cc3)cc2)C(=O)N[C@@H](C)C(=O)N1)B1O[C@@H]2C[C@@H]3C[C@@H](C3(C)C)[C@]2(C)O1` [Compound 133], the MIC in test [1] was determined as 1.5 µg/mL (≈ 1.56 µM); in test [2], 2.5 µg/mL (≈ 2.6 µM); in test [3], 2 µg/mL (≈ 2.08 µM).

Consider `C[C@@H]1NC(=O)[C@@H](N(C)C(=O)[C@H](CCCCN)NC(=O)c2ccc(-c3ccc(Cl)cc3)cc2)c2ccc(O)c(c2)-c2cc(ccc2O)C[C@@H](C(=O)N[C@@H](C)C(=O)c2nnn[nH]2)NC1=O` [Compound 134], for which the MIC in test [1] (setting [4]) was found to be 0.75 µg/mL (≈ 0.853 µM); in test [2] (setting [4]) it was 2.8 µg/mL (≈ 3.18 µM); in test [3], 45 µg/mL (≈ 51.2 µM).

With `C[C@H](NC(=O)[C@@H]1Cc2ccc(O)c(c2)-c2cc(ccc2O)[C@H](N(C)C(=O)[C@H](CCCCN)NC(=O)c2ccc(-c3ccc(Cl)cc3)cc2)C(=O)N[C@@H](C)C(=O)N1)C(=O)N[C@H]1CCNC1=O` [Compound 135], the MIC in test [1] (setting [4]) is 32 µg/mL (≈ 35.2 µM); in test [2] (setting [4]), more than 64 µg/mL; in test [3], 64 µg/mL (≈ 70.4 µM).

Regarding `C[C@@H]1NC(=O)[C@@H](N(C)C(=O)[C@H](CCCCN)NC(=O)c2ccc(-c3ccc(Cl)cc3)cc2)c2ccc(O)c(c2)-c2cc(ccc2O)C[C@@H](C(=O)N[C@@H](C)C(=O)N(C)[C@H]2CCNC2=O)NC1=O` [Compound 136], the MIC in test [1] (setting [4]) came to 2 µg/mL (≈ 2.17 µM); in test [2] (setting [4]), 8 µg/mL (≈ 8.66 µM); in test [3] it was 16 µg/mL (≈ 17.3 µM).

Consider `CCCCCCCCCCCCCC(=O)N[C@@H](CCN)C(=O)N(C)[C@@H]1C(=O)N[C@@H](C)C(=O)N[C@H](C(=O)O)Cc2ccc(OCCN)c(c2)-c2cc1ccc2OCCN` [Compound 299], for which the results for the MIC in test [1] and in test [2] were 0.031 µg/mL (≈ 0.0383 µM) and 0.19 µg/mL (≈ 0.235 µM), respectively.
